Reference: patent publication US11649460B2, “DNA aptamers, method for inhibiting human galectin-1 and method of treating a mammal in need thereof” (priority 2020, dated 2023)
Where two headings read alike, the source gives them in different places.

How the values were obtained:
[1] = system: MCF-7 human breast adenocarcinoma cell line; test: SRB cell proliferation (cytotoxicity) assay, MCF-7
From the text: (§1) The XLSTAT software was used to determine the IC50, TGI and LC50 values using the four-parameter logistic curve equation.

[2] = system: DU-145 human prostate carcinoma cell line; test: SRB cell proliferation (cytotoxicity) assay, DU-145; details: for Relative cell viability (%): human
From the text: as §1

[3] = system: A-375 human malignant melanoma; test: SRB cell proliferation (cytotoxicity) assay, A-375
From the text: as §1

[4] = system: HT-29 human colorectal adenocarcinoma; test: SRB cell proliferation (cytotoxicity) assay, HT-29
From the text: as §1

[5] = system: HCT 116 human colorectal carcinoma; test: SRB cell proliferation (cytotoxicity) assay, HCT 116
From the text: as §1

[6] = system: SK-BR-3 human breast adenocarcinoma; test: SRB cell proliferation (cytotoxicity) assay, SK-BR-3
From the text: as §1

[7] = system: NHF human foreskin skin fibroblasts; test: SRB cell proliferation (cytotoxicity) assay, NHF; details: for IC50: read-out: IC50: Concentration to inhibit 50% of cell growth
From the text: as §1

[8] = target: T1, hGal1-induced hemagglutination of red blood cells (Homo sapiens, UniProt P09382); test: Hemagglutination inhibition assay, native hGal1; type: cell-based; details: native Gal1 5 μM
T1 construct: 42; made in house; host or cells: E. coli strain M-15
Experimental: Hemagglutination Inhibition Assay
Hemagglutination assay was adopted to assess the capacity of SEQ ID NO.: 4 in inhibiting the lectin cross-linking aggregation of red blood cells (RBC), as previously described. Briefly, using a 96-well microplates appropriate amounts of 5 μM hGal1 were blended with 50 μL of aptamer in an increasing concentrations manner (0-40 μM) in PBS 1× buffer (pH 7.4). Following, 50 μL of 3% purified type B+ RBC in PBS. After 2 h of room temperature incubation, the plate was photographed and the hemagglutination area was estimated by area calculator Sketchandcalc™ and the results were expressed as relative agglutination.

[9] = system: OVCAR-3 human ovarian adenocarcinoma cell line; test: SRB cell proliferation (cytotoxicity) assay, OVCAR-3; details: for Relative cell viability (%): human
From the text: as §1

in vitro = details: human
From the text: as §1

[10] = target: T2, native human galectin-1 (hGal1) (Homo sapiens, UniProt P09382); test: Thermofluor thermal shift assay (TSA), native galectin-1; type: binding; details: 5 μM protein
T2 construct: 42; made in house; host or cells: E. coli strain M-15
Experimental: In an attempt to screen among the selected aptamers that better interact with hGal1, differential scanning fluorimetry (Termofluor) was used to characterize their binding to its target. Among all the selected aptamers, SEQ ID NO.: 4 seemed to have a more intense effect on hGal1 thermoshift and so was chosen for further analysis. The selected aptamer had its interaction evaluated with native and alkylated galectin-1. […] The respective thermal displacements were evaluated as a function of an increasing concentration of SEQ ID NO.: 4 (FIG. 1).
Thermofluor experiments were performed on an Mx3005 RT-PCR (Agilent Technologies) using the SYPRO® Orange dye (492/610 nm) (Invitrogen) as fluorescent probe. The purified (native and alkylated) protein samples were incubated for 30 min with increasing concentration of the molecules of interest, centrifuged, and submitted to the thermal denaturation assay, totalizing four distinct experiments. In a 96-well plate (Agilent Technologies) 20 μl of the reaction containing 5 μM of each protein in buffer PBS 1× and 5× SYPRO® Orange were heated from 25° C. to 95° C. at a rate of 1° C./min. The experimental result was processed as in the protocol previously described and the melting temperature was obtained using GraphPad Prism software (www.graphpad.com).

OVCAR-3 cell line = test: Synergism test with cisplatin, OVCAR-3; details: cisplatin 3 μM
From the text: For the analysis of cell proliferation, the non-clonogenic method of sulforodamine B (SRB) was used, a protein dye that binds to the basic amino acid residues of cell proteins that were viable at the time of the fixation process. Therefore, the greater the amount of SRB bound per compartment, the less the antiproliferative activity of the item under study.

[11] = read-out: IC50: Concentration to inhibit 50% of cell growth, DU-145
[12] = read-out: IC50: Concentration to inhibit 50% of cell growth, HT-29
[13] = read-out: IC50: Concentration to inhibit 50% of cell growth, SK-BR-3
[14] = Homo sapiens, MCF7, read-out: Relative cell viability (%)
[15] = Homo sapiens, DU-145, read-out: Relative cell viability (%)
[16] = Homo sapiens, A-375, read-out: Relative cell viability (%)
[17] = Homo sapiens, HT-29, read-out: Relative cell viability (%)
[18] = Homo sapiens, HCT-116, read-out: Relative cell viability (%)
[19] = Homo sapiens, SK-BR-3, read-out: Relative cell viability (%)
[20] = Homo sapiens, OVCAR-3, read-out: Relative cell viability (%)

T1 sequence (P09382 2-135): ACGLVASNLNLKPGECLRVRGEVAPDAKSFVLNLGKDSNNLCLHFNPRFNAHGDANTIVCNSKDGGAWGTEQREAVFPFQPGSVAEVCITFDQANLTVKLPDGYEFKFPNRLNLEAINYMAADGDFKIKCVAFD
T2 sequence (P09382 2-135): as above

For N.N.[Cl][Pt][Cl] [Cisplatin, reference compound], the “TGI: Concentration for total inhibition of cell growth” value ([1]; MCF-7) was 35.869 µM, the “TGI: Concentration for total inhibition of cell growth” value ([2]; DU-145) was under 3.906 µM and the IC50 [2, 11] was under 3.91 µM. For the same molecule, the “TGI: Concentration for total inhibition of cell growth” value ([3]; A-375) was 7.96 µM, the “TGI: Concentration for total inhibition of cell growth” value ([4]; HT-29) was 64.977 µM and the IC50 [4, 12] was under 3.91 µM. The “TGI: Concentration for total inhibition of cell growth” value ([5]; HCT 116) was 15.550 µM, the “TGI: Concentration for total inhibition of cell growth” value ([6]; SK-BR-3) was 4.491 µM and the IC50 [6, 13] was under 3.91 µM. The “TGI: Concentration for total inhibition of cell growth” value ([7]; NHF) was 16.139 µM and the IC50 ([7]; NHF) was 4.77 µM.

With OC[C@H]1O[C@@H](O[C@H]2[C@H](O)[C@@H](O)C(O)O[C@@H]2CO)[C@H](O)[C@@H](O)[C@H]1O (some centres unmarked) [Lactose, reference compound] the “inhibitory effect on galectin-induced hemagglutination” value [8] was “inhibited hemagglutinating activity”.

For CC(=O)O[C@H]1C(=O)[C@@]2(C)[C@H]([C@H](OC(=O)c3ccccc3)[C@]3(O)C[C@H](OC(=O)[C@H](O)[C@@H](NC(=O)c4ccccc4)c4ccccc4)C(C)=C1C3(C)C)[C@]1(OC(C)=O)CO[C@@H]1C[C@@H]2O [Paclitaxel, reference compound], the IC50 ([1]; Homo sapiens, MCF7, read-out: IC50: Concentration to inhibit 50% of cell growth) was 0.00282 µM, the viability at 0.000781 µM [1, 14] was 87.9% and the viability at 0.001562 µM [1, 14] was 65.5%. It also gave a viability at 0.003125 µM [1, 14] of 47.6%, a viability at 0.00625 µM [1, 14] of 36.9% and a viability at 0.0125 µM [1, 14] of 29.3%. The viability at 0.05 µM [1, 14] was 23.6%, the viability at 0.1 µM [1, 14] was 24.7% and the “TGI: Concentration for total inhibition of cell growth” value ([2]; DU-145) was 0.013021 µM. For the same molecule, the IC50 ([2]; Homo sapiens, DU-145, read-out: IC50: Concentration to inhibit 50% of cell growth) was 0.0072 µM, the viability at 0.000781 µM [2, 15] was 104% and the viability at 0.001562 µM [2, 15] was 95.5%. It also gave a viability at 0.003125 µM [2, 15] of 97.3%, a viability at 0.00625 µM [2, 15] of 58.9% and a viability at 0.0125 µM [2, 15] of 8.4%. The “Relative cell viability (%)” value ([2]; 0.05 µM) was −15.7%, the “Relative cell viability (%)” value ([2]; 0.1 µM) was −25.6% and the viability at 0.000781 µM [3, 16] was 117%. For the same molecule, the viability at 0.001562 µM [3, 16] was 96.3%, the viability at 0.003125 µM [3, 16] was 99.4% and the viability at 0.00625 µM [3, 16] was 98.8%. The viability at 0.0125 µM [3, 16] was 113%, the viability at 0.05 µM [3, 16] was 91.2% and the viability at 0.1 µM [3, 16] was 69%. The IC50 ([4]; Homo sapiens, HT-29, read-out: IC50: Concentration to inhibit 50% of cell growth) was 0.00631 µM, the viability at 0.000781 µM [4, 17] was 102% and the viability at 0.001562 µM [4, 17] was 99.1%. The viability at 0.003125 µM [4, 17] was 80.8%, the viability at 0.00625 µM [4, 17] was 48.8% and the viability at 0.0125 µM [4, 17] was 24.5%. It also gave a viability at 0.05 µM [4, 17] of 6.7%, a viability at 0.1 µM [4, 17] of 5% and an IC50 ([5]; Homo sapiens, HCT-116, read-out: IC50: Concentration to inhibit 50% of cell growth) of 0.00646 µM. The viability at 0.000781 µM [5, 18] was 96.2%, the viability at 0.001562 µM [5, 18] was 96.6% and the viability at 0.003125 µM [5, 18] was 90.9%. It also gave a viability at 0.00625 µM [5, 18] of 50.6%, a viability at 0.0125 µM [5, 18] of 17.5% and a viability at 0.05 µM [5, 18] of 3.4%. It also gave a viability at 0.1 µM [5, 18] of 4.7%, an IC50 ([6]; Homo sapiens, SK-BR-3, read-out: IC50: Concentration to inhibit 50% of cell growth) of 0.0148 µM and a viability at 0.000781 µM [6, 19] of 113%. It also gave a viability at 0.001562 µM [6, 19] of 113%, a viability at 0.003125 µM [6, 19] of 119% and a viability at 0.00625 µM [6, 19] of 106%. It also gave a viability at 0.0125 µM [6, 19] of 68.3%, a viability at 0.05 µM [6, 19] of 12.3% and a viability at 0.1 µM [6, 19] of 13.9%. The IC50 ([9]; Homo sapiens, OVCAR-3, read-out: IC50: Concentration to inhibit 50% of cell growth) was 0.01 µM, the CC50 ([9]; Homo sapiens, OVCAR-3, read-out: LC50: Concentration for 50% cell death) was 0.0351 µM and the viability at 0.000781 µM [9, 20] was 96.9%. For the same molecule, the viability at 0.001562 µM [9, 20] was 90.1%, the viability at 0.003125 µM [9, 20] was 89.6% and the viability at 0.00625 µM [9, 20] was 69.6%. The viability at 0.0125 µM [9, 20] was 31.1%, the “TGI: Concentration for total inhibition of cell growth” value ([9]; OVCAR-3) was 0.015402 µM and the “Relative cell viability (%)” value ([9]; 0.05 µM) was −45.1%. For the same molecule, the “Relative cell viability (%)” value ([9]; 0.1 µM) was −57.5%, the CC50 (in vitro) was over 0.1 µM and the viability at 0.000781 µM (in vitro) was 86.6%. The viability at 0.001562 µM (in vitro) was 79.7%, the viability at 0.003125 µM (in vitro) was 72.1% and the viability at 0.00625 µM (in vitro) was 61.9%. It also gave a viability at 0.0125 µM (in vitro) of 58.6%, a viability at 0.05 µM (in vitro) of 28.7% and a viability at 0.1 µM (in vitro) of 16.9%. For the same molecule, the IC50 ([7]; Homo sapiens, Skin fibroblast) was 0.0187 µM and the “TGI: Concentration for total inhibition of cell growth” value ([7]; NHF) was over 0.1 µM.

B1: AGCTGACACAGCAGGTTGGTGCGCCCAATACAGGCGCAGTATCTGTCCGTGGGCCGGGTAAAAGTTACGGACCGAGTCGAGCAATCTCGAAAT (nucleic acid)
DNA: AGCTGACACAGCAGGTTGGTGCGCCCAATACAGGCGCAGTATCTGTCCGTGGGCCGGGTAAAAGTTACGGACCGAGTCGAGCAATCTCGAAAT
modifications: chemistry not given here
For B1, the “TGI: Concentration for total inhibition of cell growth” value ([1]; MCF-7) was 48.434 µM, the IC50 ([1]; read-out: IC50: Concentration to inhibit 50% of cell growth, MCF-7) was 17.8 µM and the CC50 ([1]; read-out: LC50: Concentration for 50% cell death, MCF-7) was 84.1 µM. The “TGI: Concentration for total inhibition of cell growth” value ([2]; DU-145) was 42.423 µM, the IC50 [2, 11] was 23.4 µM and the CC50 ([2]; read-out: LC50: Concentration for 50% cell death, DU-145) was 83.5 µM. For the same molecule, the “TGI: Concentration for total inhibition of cell growth” value ([3]; A-375) was 36.326 µM, the IC50 ([3]; read-out: IC50: Concentration to inhibit 50% of cell growth, A-375) was 26.3 µM and the CC50 ([3]; read-out: LC50: Concentration for 50% cell death, A-375) was 51.5 µM. The “TGI: Concentration for total inhibition of cell growth” value ([4]; HT-29) was 30.010 µM, the IC50 [4, 12] was 14.6 µM and the CC50 ([4]; read-out: LC50: Concentration for 50% cell death, HT-29) was 60.3 µM. The “TGI: Concentration for total inhibition of cell growth” value ([5]; HCT 116) was 41.730 µM, the IC50 ([5]; read-out: IC50: Concentration to inhibit 50% of cell growth, HCT 116) was 16 µM and the CC50 ([5]; read-out: LC50: Concentration for 50% cell death, HCT 116) was 96.3 µM. For the same molecule, the “TGI: Concentration for total inhibition of cell growth” value ([6]; SK-BR-3) was 37.529 µM, the IC50 [6, 13] was 24.3 µM and the CC50 ([6]; read-out: LC50: Concentration for 50% cell death, SK-BR-3) was 60.2 µM. For the same molecule, the “TGI: Concentration for total inhibition of cell growth” value ([9]; OVCAR-3) was 37.711 µM, the IC50 ([9]; read-out: IC50: Concentration to inhibit 50% of cell growth, OVCAR-3) was 11.1 µM and the CC50 ([9]; read-out: LC50: Concentration for 50% cell death, OVCAR-3) was 87.8 µM. The “TGI: Concentration for total inhibition of cell growth” value ([7]; NHF) was 53.452 µM, the IC50 ([7]; NHF) was 33.7 µM and the CC50 ([7]; read-out: LC50: Concentration for 50% cell death, NHF) was 93.6 µM. For the same molecule, the “variation of denaturation temperature (Tm) of native hGal1” value [10] was “greater variation”, the “inhibitory effect on galectin-induced hemagglutination” value [8] was “better effect” and the “effect on the profile of antiproliferative activity in association with cisplatin” value (OVCAR-3 cell line) was “enhances”.
